Measured values taken from patent US20140296153A1, “Oligodendrocyte Differentiation” (priority 2011, published 2014).

Key:
[1] = tested on: SVZ cells; assay: BrdU cell proliferation study in SVZ cell cultures; assay type: cell-based, mouse; settings: 48 hours, BrdU last 4 hours
Description: SVZ cell cultures were obtained from early postnatal (P1-3) C57B1/6 donor mice as described previously.
Brains were removed following decapitation and placed in HBSS solution (Gibco, Carlsbad, Calif., USA). Fragments of SVZ were dissected out of 450 μm thick coronal brain sections, digested in 0.025% trypsin and 0.265 mM EDTA (Gibco), and dissociated by gentle mixing. The cell suspension was diluted in serum-free culture medium (SFM) composed of Dulbecco's modified eagle medium (D-MEM/F12 Gluta-MAX™-I, Gibco) supplemented with 100 U/mL penicillin, 100 μg/mL streptomycin (Gibco), 1% B27 (Gibco), 10 ng/mL epidermal growth factor (EGF; Gibco), and 5 ng/mL basic fibroblast growth factor (FGF-2, Gibco). Single cells were then plated on uncoated Petri dishes at a density of 3000 cells/cm^2. […]
Fluorescence images were recorded using an LSM 510 Meta confocal microscope or an Axioskop 2 Plus fluorescence microscope (both from Carl Zeiss). […] Percentages of TUNEL or BrdU immunoreactive cells in SVZ cell cultures were calculated from cell counts in five independent microscopic fields in each coverslip with a x40 objective (approximately 200 cells per field). […] For SCCl experiments, the percentage of oligodendrocytic-like responding cells (with a Thromb/Hist ratio above 1.3) was calculated on the basis of one microscopic field per coverslip, containing approximately 100 cells (magnification, ×40). […]

[2] = tested on: SVZ cells; assay: SVZ self-renewal assay (secondary neurospheres); assay type: cell-based, mouse; settings: primary neurospheres exposed to Hp 1 μM for 6 days, replated without Hp
Description: Neurosphere forming and self-renewal assays were performed on SVZ cells seeded at clonal density, 2500 cells per well in 24-well cell culture plates in SFM containing 5 ng/ml EGF and 2.5 ng/ml FGF-2 and supplemented or not (control) with 1 μM Hp or 50 ng.ml^−1 hepatocyte growth factor (carrier free recombinant human HGF, R&D Systems, Lille, France). After 6 days, the numbers of primary neurospheres were determined. For self-renewal assay, neurospheres were collected, dissociated as single cells and seeded in SFM containing 5 ng/ml EGF and 2.5 ng/ml FGF-2 in 24 well plates. After 6 days, the number of secondary neurospheres was counted.
For the SVZ neurosphere forming and self-renewal assays the experiments were replicated in five independent culture preparations and each experimental condition was assayed in four different coverslips.

SMILES: CC(C)C[C@H](NC(=O)[C@H](Cc1ccccc1)NC(=O)[C@H](CCCCN)NC(=O)[C@H](Cc1ccccc1)NC(=O)[C@H](CC(N)=O)NC(=O)[C@@H](NC(=O)[C@@H]1CCCN1)C(C)C)C(=O)N[C@@H](CO)C(=O)N[C@@H](Cc1cnc[nH]1)C(=O)O [Hp, PVNFKFLSH]
- percentage of BrdU-positive cells ([1]; 1 μM): 4.70±0.53%
- percentage of BrdU-positive cells ([1]; Hp 100 nM): 4.01±0.81%
- number of secondary neurospheres (control 100%) [2]: 125.5±13.38%
